Experimental findings from ChEMBL document CHEMBL1126861 (J Med Chem, 1993) are described below.

Experiment [1] has as its target Delta-type opioid receptor (Rattus norvegicus, UniProt P33533). Briefly: Tested for binding affinity against delta opioid receptor by displacing [3H]- DSLET radioligand from rat brain membrane preparations.
In another experiment the target is Mu-type opioid receptor (Rattus norvegicus, UniProt P33535). As to the kind of experiment: Tested for binding affinity against mu opioid receptor fby displacing [3H]- DAMGO radioligand from rat brain membrane preparations.

Where a SMILES comes first, the peptide text is derived from it.

Delta-type opioid receptor, sequence (P33533 whole entry): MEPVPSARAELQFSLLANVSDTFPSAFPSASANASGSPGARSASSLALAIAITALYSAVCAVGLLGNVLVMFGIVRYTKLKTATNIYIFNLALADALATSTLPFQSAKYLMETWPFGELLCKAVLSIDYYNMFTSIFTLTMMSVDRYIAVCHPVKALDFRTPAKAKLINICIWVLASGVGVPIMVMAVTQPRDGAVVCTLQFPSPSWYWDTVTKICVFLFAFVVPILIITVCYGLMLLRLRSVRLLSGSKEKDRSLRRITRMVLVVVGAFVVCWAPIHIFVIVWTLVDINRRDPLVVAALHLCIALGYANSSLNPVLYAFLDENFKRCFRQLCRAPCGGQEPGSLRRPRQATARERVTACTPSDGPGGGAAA
Mu-type opioid receptor, sequence (P33535 whole entry): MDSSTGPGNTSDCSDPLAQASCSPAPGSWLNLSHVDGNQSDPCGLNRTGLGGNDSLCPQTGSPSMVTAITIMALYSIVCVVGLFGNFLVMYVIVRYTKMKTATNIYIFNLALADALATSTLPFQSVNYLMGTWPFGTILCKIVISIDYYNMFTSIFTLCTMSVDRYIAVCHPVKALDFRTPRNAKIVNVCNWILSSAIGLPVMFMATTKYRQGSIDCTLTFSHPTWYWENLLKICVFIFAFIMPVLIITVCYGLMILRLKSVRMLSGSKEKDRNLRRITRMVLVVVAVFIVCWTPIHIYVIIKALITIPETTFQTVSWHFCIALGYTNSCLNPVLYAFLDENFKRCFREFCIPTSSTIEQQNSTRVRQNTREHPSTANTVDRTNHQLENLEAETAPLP

As a reminder, the Ki is the dissociation constant of the complex between target and ligand, obtained from inhibition or displacement. For the molecule `N[C@@H](Cc1ccc(O)cc1)C(=O)N1Cc2ccccc2C[C@H]1C(=O)N[C@@H](Cc1ccccc1)C(=O)O` (HELM PEPTIDE1{Y.[Tic].F}$$$$V2.0), the Ki in experiment [1] is 1.94 nM.
As for `CC(C)[C@H](NC(=O)[C@H](CC(=O)O)NC(=O)[C@H](Cc1ccccc1)NC(=O)[C@@H](C)NC(=O)[C@@H](N)Cc1ccc(O)cc1)C(=O)N[C@H](C(=O)NCC(N)=O)C(C)C` [DELTORPHIN C], the values for the inhibitory constant (Ki) (in experiment [1]; at Mu-type opioid receptor) were 6.43 nM and 3930 nM, respectively.
As for `Oc1ccc2c3c1O[C@H]1c4[nH]c5ccccc5c4C[C@@]4(O)[C@@H](C2)N(CC2CC2)CC[C@]314` [NALTRINDOLE], the Ki in experiment [1] was determined as 0.182 nM.
Take `N[C@@H](Cc1ccc(O)cc1)C(=O)N1Cc2ccccc2C[C@H]1C(=O)N[C@@H](Cc1ccccc1)C(=O)N[C@@H](Cc1ccccc1)C(=O)O` (HELM PEPTIDE1{Y.[Tic].F.F}$$$$V2.0): the inhibitory constant (Ki) came to 0.308 nM in experiment [1] and 3230 nM at Mu-type opioid receptor.
